Source: PubChem BioAssay AID330 (DTP/NCI, 2004)
Values joined by “and” are separate entries in the source; they are usually repeats but may differ in a detail not shown here. Equal values may be shown once. Inconclusive results and toxic doses are left out. The calls were made as follows: active = survival T/C of 150% or more; inactive = T/C below 125% in these data.

Tested on: P388 leukemia ip, CD2F1 mice, survival T/C
Test: NCI In Vivo Anticancer Drug Screen. Data for tumor model P388 Leukemia (intraperitoneal) in CD2F1 (CDF1) mice
Details: endpoint: median survival time, higher = longer survival
Outline: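 Mice carrying the transplanted tumor received test compound or vehicle. Survival was recorded in each group, and the value is the treated-group measurement divided by that of the vehicle-treated control group.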

[1] = dose: 50.0 mg/kg/injection, schedule: Q01DX005 (ip), vehicle: Klucel (hydroxypropylcellulose) (HPC)
[2] = dose: 100.0 mg/kg/injection, schedule: Q01DX005 (ip), vehicle: Klucel (hydroxypropylcellulose) (HPC)
[3] = dose: 200.0 mg/kg/injection, schedule: Q01DX005 (ip), vehicle: Klucel (hydroxypropylcellulose) (HPC)
[4] = dose: 50.0 mg/kg/injection, schedule: Q01DX005 (ip), vehicle: saline with Tween-80
[5] = dose: 100.0 mg/kg/injection, schedule: Q01DX005 (ip), vehicle: saline with Tween-80
[6] = dose: 200.0 mg/kg/injection, schedule: Q01DX005 (ip), vehicle: saline with Tween-80
[7] = dose: 50.0 mg/kg/injection, schedule: Q01DX009 (ip), vehicle: saline with Tween-80
[8] = dose: 100.0 mg/kg/injection, schedule: Q01DX009 (ip), vehicle: saline with Tween-80
[9] = dose: 200.0 mg/kg/injection, schedule: Q01DX009 (ip), vehicle: saline with Tween-80
[10] = dose: 100.0 mg/kg/injection, schedule: Q04DX002 (ip), vehicle: saline with Tween-80
[11] = dose: 200.0 mg/kg/injection, schedule: Q04DX002 (ip), vehicle: saline with Tween-80
[12] = dose: 400.0 mg/kg/injection, schedule: Q04DX002 (ip), vehicle: saline with Tween-80

Measured: T/C

CN(C)CCNCCN
inactive: dose: 50.0 mg/kg/injection, schedule: Q01DX005 (ip), vehicle: saline 96 % of control | dose: 100.0 mg/kg/injection, schedule: Q01DX005 (ip), vehicle: saline 99 % of control

S=C(Nc1ccccc1)Nc1ncn[nH]1
inactive: [1] 101 % of control | [2] 100 % of control | [3] 99 % of control

O=c1[nH][nH]c(=O)c2c1Nc1c(c(=O)[nH][nH]c1=O)C2c1ccncc1
inactive: [4] 103 % of control | [5] 108 % of control | [6] 96 % of control

CCCCP(=O)(CCCC)CCCC.CCCCP(=O)(CCCC)CCCC.CCCCP(=O)(CCCC)CCCC.CCCCP(=O)(CCCC)CCCC.[Ce+3].[O-][Cl+3]([O-])([O-])O
inactive: [7] 97 % of control | [8] 92 % of control | [9] 86 % of control

CC(=O)OCC1OC(OC2C=C(O[Si](C)(C)C)C[C@H]3C(=O)C=CC(=O)[C@@H]23)C(OC(C)=O)C(OC(C)=O)C1OC(C)=O (stereo not given in full)
inactive: dose: 7.5 mg/kg/injection, schedule: Q01DX005 (ip), vehicle: saline with Tween-80 98 % of control | dose: 15.0 mg/kg/injection, schedule: Q01DX005 (ip), vehicle: saline with Tween-80 98 % of control | dose: 60.0 mg/kg/injection, schedule: Q01DX005 (ip), vehicle: saline with Tween-80 98 % of control and 102 % of control

CCOC(CCl)OCC
inactive: dose: 6.25 mg/kg/injection, schedule: Q01DX009 (ip), vehicle: saline 103 % of control and 105 % of control

[O-]/[N+](=N/O)C(c1ccccc1)c1ccccc1
inactive: dose: 3.0 mg/kg/injection, schedule: Q01DX005 (ip), vehicle: Klucel + Tween-80 104 % of control | dose: 6.0 mg/kg/injection, schedule: Q01DX005 (ip), vehicle: Klucel + Tween-80 98 % of control | dose: 12.0 mg/kg/injection, schedule: Q01DX005 (ip), vehicle: Klucel + Tween-80 100 % of control | dose: 24.0 mg/kg/injection, schedule: Q01DX005 (ip), vehicle: Klucel + Tween-80 97 % of control

CC(C)(CC(=O)OCCO)c1cc(CC(C)(C)c2cc(CC(C)(C)c3cc(CC(C)(C)C4(C)OCCO4)no3)no2)no1
inactive: [10] 88 % of control | [11] 87 % of control | [12] 87 % of control

O=[N+]([O-])c1ccc2c(c1)[S@@](=O)c1nc([N+](=O)[O-])cnc1N2
inactive: [1] 103 % of control | [2] 101 % of control

O=C(NC(Cc1c[nH]c2ccccc12)C(=O)NC(Cc1ccccc1)C(=O)O)OCc1ccccc1 (stereo not given)
inactive: [1] 103 % of control and 93 % of control | [2] 106 % of control | [3] 89 % of control

S=C(Nc1ccccc1)Nc1ccc(N(CCCl)CCCl)cc1
inactive: dose: 100.0 mg/kg/injection, schedule: Q04DX003 (ip), vehicle: Klucel (hydroxypropylcellulose) (HPC) 106 % of control | dose: 200.0 mg/kg/injection, schedule: Q04DX003 (ip), vehicle: Klucel (hydroxypropylcellulose) (HPC) 114 % of control | dose: 400.0 mg/kg/injection, schedule: Q04DX003 (ip), vehicle: Klucel (hydroxypropylcellulose) (HPC) 111 % of control

COC(=O)C1CCC2c3ccccc3C(C1)c1ccccc12 (stereo not given)
inactive: [8] 90 % of control | dose: 100.0 mg/kg/injection, schedule: Q04DX003 (ip), vehicle: saline with Tween-80 90 % of control | [9] 118 % of control | dose: 200.0 mg/kg/injection, schedule: Q04DX003 (ip), vehicle: saline with Tween-80 100 % of control | dose: 400.0 mg/kg/injection, schedule: Q01DX009 (ip), vehicle: saline with Tween-80 118 % of control | dose: 400.0 mg/kg/injection, schedule: Q04DX003 (ip), vehicle: saline with Tween-80 100 % of control

CN(C)c1ccc(C2(c3ccccc3)c3ccccc3C(=O)N2N)cc1 (stereo not given)
inactive: [10] 89 % of control | [11] 89 % of control | [12] 90 % of control

Cc1c2cnccc2c(C)c2c1c1ccccc1n2CCCCCCCCCCCCn1c2ccccc2c2c(C)c3cnccc3c(C)c21
inactive: dose: 25.0 mg/kg/injection, schedule: Q04DX002 (ip), vehicle: saline with Tween-80 98 % of control | dose: 50.0 mg/kg/injection, schedule: Q04DX002 (ip), vehicle: saline with Tween-80 100 % of control | [10] 100 % of control | [11] 98 % of control

CCSC(=S)Nc1nc2ccc(C)cc2s1
inactive: dose: 6.25 mg/kg/injection, schedule: Q01DX009 (ip), vehicle: Klucel (hydroxypropylcellulose) (HPC) 107 % of control | dose: 12.5 mg/kg/injection, schedule: Q01DX009 (ip), vehicle: Klucel (hydroxypropylcellulose) (HPC) 89 % of control | dose: 25.0 mg/kg/injection, schedule: Q01DX009 (ip), vehicle: Klucel (hydroxypropylcellulose) (HPC) 103 % of control

O=C1OC(COCc2ccccc2)C/C1=C\c1ccc2c(c1)OCO2 (stereo not given)
inactive: [10] 95 % of control | [11] 86 % of control | [12] 86 % of control

Cc1ccc(NC(=O)Oc2ccc(C(C)(C)C)cc2Br)c([N+](=O)[O-])c1
inactive: [7] 96 % of control | [8] 97 % of control | [9] 101 % of control

Cc1cc(-c2cc(C)nc(N)n2)nc(N)n1
inactive: dose: 60.0 mg/kg/injection, schedule: Q01DX005 (ip), vehicle: saline 100 % of control | dose: 120.0 mg/kg/injection, schedule: Q01DX005 (ip), vehicle: saline 100 % of control | dose: 240.0 mg/kg/injection, schedule: Q01DX005 (ip), vehicle: saline 108 % of control

CC(=O)O[C@@]1(C)OC(=O)[C@@]2(c3ccccc3)N(C(C)=O)C(C)=C(C#N)[C@@]12C#N
inactive: [4] 100 % of control | [5] 106 % of control | [6] 97 % of control

COc1cccc(-c2nc(SCC(N)=O)[nH]c(=O)c2C#N)c1
inactive: [4] 112 % of control | [5] 98 % of control | [6] 98 % of control

Cc1cc(C)n(-c2cc(N3CCN(C)CC3)ncn2)n1
inactive: dose: 50.0 mg/kg/injection, schedule: Q01DX009 (ip), vehicle: saline 98 % of control | dose: 100.0 mg/kg/injection, schedule: Q01DX009 (ip), vehicle: saline 98 % of control | dose: 200.0 mg/kg/injection, schedule: Q01DX009 (ip), vehicle: saline 98 % of control

N#Cc1c(-c2ccc(Cl)cc2)c(-c2ccc(Cl)cc2)nn(CCCl)c1=O
inactive: [10] 91 % of control | [11] 100 % of control | [12] 91 % of control

Cc1n[nH]c(=S)n1C
inactive: dose: 43.75 mg/kg/injection, schedule: Q04DX003 (ip), vehicle: saline sonified 95 % of control | dose: 87.5 mg/kg/injection, schedule: Q04DX003 (ip), vehicle: saline sonified 100 % of control | dose: 175.0 mg/kg/injection, schedule: Q04DX003 (ip), vehicle: saline sonified 90 % of control
